Columns and labels:
BRD4 (His-Brd4(44-477)) = BRD4 (His-Brd4(44-477)) (Homo sapiens (Human), UniProt O60885); assay: TR-FRET in-vitro binding assay for BRD4; conditions: acetyl-histone H4 peptide
Description: All assays were performed in 384 well microtiter plates. Each assay plate contained 8-point serial dilutions for 40 test compounds, plus 16 high- and 16 low controls. Liquid handling and incubation steps were done on an Innovadyne Nanodrop Express equipped with a robotic arm (Thermo CatX, Perkin Elmer/Caliper Twister II) and an incubator (Liconic STX40, Thermo Cytomat 2C450). The assay plates were prepared by addition of 50 nl per well of compound solution in 90% DMSO HummingBird nanodispenser (Zinsser Analytic). […] Reactions were incubated at 30° C. for 35 minutes. […] After 35 minutes incubation at 30° C., plates were measured in a Perkin Elmer EnVision multilabel reader.
Test compounds were dissolved in DMSO (10 mM) and transferred into 1.4 mL flat bottom or V-shaped Matrix tubes carrying a unique 2D matrix. The stock solutions were stored at […] if not used immediately. For the test procedure the vials were defrosted and identified by a scanner whereby a working sheet was generated that guided the subsequent working steps. Compound dilutions were made in 96 well plates. This format enabled the assay of maximally 40 individual test compounds at 8 concentrations (single points) including 4 reference compounds, if desired (known BET inhibitors from the prior art, for this and other assays of the type disclosed herein). The dilution protocol included the production of “pre-dilution plates”, “master plates” and “assay plates”.
Pre-dilution plates: 96 polypropylene well plates were used as pre-dilution plates. A total of 4 pre-dilution plates were prepared including 10 test compounds each on the plate positions A1-A10, one standard compound at A11 and one DMSO control at A12. All dilution steps were done on a HamiltonSTAR robot. […] These plates were used directly for the assay which was performed in a total volume of 13.55 μL. […] Cell Growth Inhibition Assay

MV-4-11 cells = assay: Cell growth inhibition assay (CellTiter-Glo), MV-4-11; type: cell-based, human; conditions: MV-4-11, 4 days; for GI50: Homo sapiens, MV4-11, 96 h, half-maximal growth inhibition; for MV-4-11 TGI: total growth inhibition
Method in brief: (§1)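 Growth of each leukemia line in its own serum-containing medium was measured by CellTiter-Glo ATP luminescence after 4 days at 37 °C with 3-fold serial dilutions starting at 10 μM (0.1% DMSO). Readings were corrected for background and day 0, scaled so that vehicle is 100% and medium-only is −100%, and 4-parameter fits gave IC50 and TGI.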

THP-1 cells = assay: Cell growth inhibition assay (CellTiter-Glo), THP-1; type: cell-based, human; conditions: THP-1, 4 days; for GI50: Homo sapiens, 96 h, half-maximal growth inhibition; for THP-1 TGI: total growth inhibition
Method in brief: as §1

K-562 cells = assay: Cell growth inhibition assay (CellTiter-Glo), K-562; type: cell-based, human; conditions: K-562, 4 days; for GI50: Homo sapiens, K562, 96 h, half-maximal growth inhibition; for K-562 TGI: total growth inhibition
Method in brief: as §1

BRD4-NUT-fusion = BRD4-NUT-fusion (Homo sapiens (Human), UniProt O60885+Q86Y26); assay: Nut-foci formation assay (HCS) in HCC2494 NUT midline carcinoma cells; type: cell-based; conditions: 24 hours, nuclear BRD4-NUT foci, immunofluorescence

Structure (SMILES) | IC50 (BRD4 (His-Brd4(44-477))) [µM] | GI50 (MV-4-11 cells) [µM] | MV-4-11 TGI (MV-4-11 cells) [µM] | GI50 (THP-1 cells) [µM] | THP-1 TGI (THP-1 cells) [µM] | GI50 (K-562 cells) [µM] | K-562 TGI (K-562 cells) [µM] | IC50 (BRD4-NUT-fusion) [µM]
COc1ccc(-n2nc3c(c2C)C(=O)N(c2cc(C)c(=O)n(C)c2)C3c2ccc(Cl)cc2)cn1 (stereo not drawn) [Example 20a, 6-(4-chlorophenyl)-5-(1,5-dimethyl-6-oxo-1,6-dihydropyridin-3-yl)-2-(6-methoxypyridin-3-yl)-3-methyl-5,6-dihydropyrrolo[3,4-c]pyrazol-4(2H)-one] | 0.062 | 0.0496 | 0.065 | 0.104 | 0.178 | 0.236 | >10 | 0.0736
Cc1cc(N2C(=O)c3c(C4CC4)nn(C)c3C2c2ccc(Cl)cc2)cn(C)c1=O (stereo not drawn) [Example 1, 6-(4-chlorophenyl)-3-cyclopropyl-5-(1,5-dimethyl-6-oxo-1,6-dihydropyridin-3-yl)-1-methyl-5,6-dihydropyrrolo[3,4-c]pyrazol-4(1H)-one] | 0.028 | 0.0246 | 0.0412 | 0.0449 | 0.104 | 0.141 | >10 | 0.0333
Cc1[nH]nc2c1C(=O)N(c1cc(Cl)c(=O)n(C)c1)C2c1ccc(Cl)cc1 (stereo not drawn) [Example 6, 5-(5-chloro-1-methyl-6-oxo-1,6-dihydropyridin-3-yl)-6-(4-chlorophenyl)-3-methyl-5,6-dihydropyrrolo[3,4-c]pyrazol-4(2H)-one] | 0.12 | 0.0741 | 0.134 | 0.189 | 0.352 | 0.558 | >10 | 0.108
COc1ncccc1-c1nn(C)c2c1C(=O)N(c1cc(C)c(=O)n(C)c1)C2c1ccc(Cl)cc1 (stereo not drawn) [Example 15, 6-(4-chlorophenyl)-5-(1,5-dimethyl-6-oxo-1,6-dihydropyridin-3-yl)-3-(2-methoxypyridin-3-yl)-1-methyl-5,6-dihydropyrrolo[3,4-c]pyrazol-4(1H)-one] | 0.0625 | 0.0546 | 0.0924 | 0.0678 | 0.143 | 0.64 | >10 | 0.0607
Cc1nn(C(C)C)c2c1C(=O)N(c1cc(C)c(=O)n(C)c1)C2c1ccc(Cl)cc1 (stereo not drawn) [Example 12, 6-(4-chlorophenyl)-5-(1,5-dimethyl-6-oxo-1,6-dihydropyridin-3-yl)-1-isopropyl-3-methyl-5,6-dihydropyrrolo[3,4-c]pyrazol-4(1H)-one] | 0.067 | 0.0191 | 0.0374 | 0.0622 | 0.112 | 0.193 | >10 | 0.0484
COc1ncccc1-n1nc2c(c1C)C(=O)N(c1cc(C)c(=O)n(C)c1)C2c1ccc(Cl)cc1 (stereo not drawn) [Example 17b, 6-(4-chlorophenyl)-5-(1,5-dimethyl-6-oxo-1,6-dihydropyridin-3-yl)-2-(2-methoxypyridin-3-yl)-3-methyl-5,6-dihydropyrrolo[3,4-c]pyrazol-4(2H)-one] | 0.056 | 0.027 | 0.0343 | 0.0724 | 0.117 | 0.154 | >10 | 0.0403
